15 compounds from ChEMBL document CHEMBL5230154, “Chemical probe of AHL modulators on quorum sensing in Gram-Negative Bacteria and as antiproliferative agents: A review” (Eur J Med Chem, 2021) can be followed below.

Each structure is given as a SMILES string. pIC50: −log10 of the molar value.

A short description of data set [1]: Inhibition of quorum sensing system in Pseudomonas aeruginosa MW1 assessed as inhibition of LasR expression at 33 uM incubated for 8 to 12 hrs in presence of 3-oxo-C12 HSL by fluorescence analysis. The following applies: time 8-12 hrs.
Data set [2] is described as follows: Inhibition of quorum sensing system in Pseudomonas aeruginosa MW1 assessed as inhibition of LasR expression incubated for 8 to 12 hrs in presence of 3-oxo-C12 HSL by fluorescence analysis.
A short description of data set [3]: Inhibition of quorum sensing system in Pseudomonas aeruginosa PA14 assessed as inhibition of pyocyanin production incubated for 17 hrs by spectrophotometric assay.
Data set [4] relates to Pseudomonas aeruginosa. Nature of the data set: Inhibition of quorum sensing system in Pseudomonas aeruginosa MH602 expressing PlasB::gfp assessed as inhibition of GFP fluorescence expression at 250 uM incubated for 15 hrs by fluorescence microplate reader analysis.
Data set [5] relates to Pseudomonas aeruginosa. Nature of the data set: Inhibition of quorum sensing system in Pseudomonas aeruginosa MH602 expressing PlasB::gfp assessed as inhibition of GFP fluorescence expression at 62.5 uM incubated for 15 hrs by fluorescence microplate reader analysis.
Data set [6] is described as follows: Inhibition of quorum sensing system in Pseudomonas aeruginosa PA14 assessed as inhibition of pyocyanin production by UV-vis spectrophotometric assay.
Data set [7] concerns Pseudomonas aeruginosa. Description: Anti-motility activity against Pseudomonas aeruginosa PAO1 NCTC 10332 assessed as reduction in swarming at 50 uM and measured after 16 hr by swarming assay. Type of data set: functional. Set-up: scale not given: the % may be the effect or the level left.
Data set [8] relates to Pseudomonas aeruginosa. Nature of the data set: Antibiofilm activity against Pseudomonas aeruginosa PAO1 NCTC 10332 assessed as inhibition of biofilm formation incubated for 24 hrs by crystal violet staining based assay. The data set is classed as functional, organism-based. The conditions noted are these: PAO1 NCTC 10332, 24 h.
Data set [9] can be described thus: Inhibition of quorum sensing system in Pseudomonas aeruginosa PAO1 assessed as inhibition of pqsR expression incubated for 4 hrs by RT-PCR analysis.
The nature of data set [10]: Inhibition of quorum sensing system in Pseudomonas aeruginosa PAO1 assessed as inhibition of RhlR expression incubated for 4 hrs by RT-PCR analysis.
Data set [11] has as its system Pseudomonas aeruginosa. Description: Anti-motility activity against Pseudomonas aeruginosa PAO1 NCTC 10332 assessed as reduction in swimming at 50 uM and measured after 18 hr. The data set is classed as functional. Set-up: scale not given: the % may be the effect or the level left.
Data set [12] is described as follows: Antagonist activity against quorum sensing system in Pseudomonas aeruginosa PAO1 transfected with rhlA-lacZ reporter gene assessed as inhibition of beta-galactosidase activity incubated for 24 hrs by elastin-Congo red assay. (In general: In a reporter assay the amount or activity of a reporter protein is the signal.)
Data set [13] is described as follows: Antagonist activity against quorum sensing system in Pseudomonas aeruginosa PAO1 transfected with lasB-lacZ reporter gene assessed as inhibition of beta-galactosidase activity incubated for 24 hrs by elastin-Congo red assay.
Data set [14] relates to Escherichia coli. Nature of the data set: Inhibition of Escherichia coli MT102 harbouring pJBA132 expressing Gfp assessed as inhibition of GFP fluorescence expression at 125 uM incubated for 15 hrs by fluorescence microplate reader analysis.
Data set [15] relates to Pseudomonas aeruginosa. Description: Inhibition of Pseudomonas aeruginosa MH602 harboring PlasB::gfp(ASV) reporter assessed as decrease in GFP expression at 250 uM incubated for 22 hrs by fluorescence microplate reader analysis.
Data set [16] deals with Escherichia coli. Description: Inhibition of Escherichia coli MT102 harbouring pJBA132 expressing Gfp assessed as inhibition of GFP fluorescence expression at 62.5 uM incubated for 15 hrs by fluorescence microplate reader analysis.
For data set [17], the system named is Escherichia coli. Nature of the data set: Inhibition of Escherichia coli MT102 harbouring pJBA132 expressing Gfp assessed as inhibition of GFP fluorescence expression at 250 uM incubated for 15 hrs by fluorescence microplate reader analysis.
The test system of data set [18] is Pseudomonas aeruginosa. Nature of the data set: Antagonist activity against quorum sensing system in Pseudomonas aeruginosa PAO-JP2 (plasI-LVAgfp) assessed as inhibition of 3-oxo-C12 HSL induced GFP expression at 100 uM incubated for 6 hrs in presence of 10 uM of 3-oxo-C12-D10 by fluorescence analysis. The following applies: filed as antagonist.
In data set [19] the test system is Pseudomonas aeruginosa. Description: Antagonist activity against quorum sensing system in Pseudomonas aeruginosa PAO-JP2 (plasI-LVAgfp) assessed as inhibition of 3-oxo-C12 HSL induced GFP expression at 100 uM incubated for 6 hrs in presence of 100 uM of 3-oxo-C12-D10 by fluorescence analysis. The conditions noted are these: filed as antagonist.
Data set [20] deals with Pseudomonas aeruginosa. Nature of the data set: Antagonist activity against quorum sensing system in Pseudomonas aeruginosa PAO-JP2 (plasI-LVAgfp) assessed as inhibition of 3-oxo-C12 HSL induced GFP expression at 100 uM incubated for 6 hrs in presence of 50 uM of 3-oxo-C12-D10 by fluorescence analysis. The conditions noted are these: filed as antagonist.
A short description of data set [21]: Cytotoxicity against human PBMC cells assessed as reduction in cell viability at 100 uM by MTT assay. Type of data set: toxicity, cell-based. A general note: Tetrazolium dyes change colour on reduction, which living cells bring about.
Data set [22] relates to Serratia marcescens. Nature of the data set: Antibiofilm activity against Serratia marcescens ATCC 27117 assessed as inhibition of biofilm formation incubated for 24 hrs by crystal violet staining based assay. The conditions noted are these: ATCC 27117, 24 h. Type of data set: functional, organism-based.
The nature of data set [23]: Inhibition of quorum sensing system in Pseudomonas aeruginosa PAO1 assessed as inhibition of pyocyanin production at 15 uM incubated for 12 hrs by spectrophotometric assay.
A short description of data set [24]: Inhibition of quorum sensing system in Pseudomonas aeruginosa PAO1 assessed as inhibition of rhamnolipid production at 15 uM incubated for 12 hrs by spectrophotometric assay.
A short description of data set [25]: Inhibition of quorum sensing system in Pseudomonas aeruginosa PAO1 assessed as decrease in rhlR expression at 15 uM incubated for 12 hrs by real-time fluorescent quantitative PCR analysis.
Data set [26] is described as follows: Inhibition of quorum sensing system in Pseudomonas aeruginosa PAO1 assessed as inhibition of elastase production at 15 uM incubated for 12 hrs by Congo red dye based spectrophotometric assay.
Data set [27] can be described thus: Inhibition of quorum sensing system in Pseudomonas aeruginosa PAO1 assessed as decrease in lasI expression at 15 uM incubated for 12 hrs by real-time fluorescent quantitative PCR analysis.
The nature of data set [28]: Inhibition of quorum sensing system in Pseudomonas aeruginosa PAO1 assessed as decrease in lasA expression at 15 uM incubated for 12 hrs by real-time fluorescent quantitative PCR analysis.
A short description of data set [29]: Inhibition of quorum sensing system in Pseudomonas aeruginosa PAO1 assessed as decrease in pqsR expression at 15 uM incubated for 12 hrs by real-time fluorescent quantitative PCR analysis.
Data set [30] in a line: Inhibition of quorum sensing system in Pseudomonas aeruginosa PAO1 assessed as decrease in pqsA expression at 15 uM incubated for 12 hrs by real-time fluorescent quantitative PCR analysis.
The test system of data set [31] is Pseudomonas aeruginosa. Description: Inhibition of biofilm formation in Pseudomonas aeruginosa PAO1 incubated for 12 hrs by crystal violet staining based analysis. The data set is classed as functional.

As a reminder, the inhibition is the share of the control response that was lost under treatment. Broadly, the pIC50 is −log10 of the IC50, conventionally taken in molar units. For `CCCCCCCCCNC(=O)CC(=O)c1ccccc1`, in data set [1], the inhibition came to 75%. Moreover, in [2], the pIC50 is 5.00.
In the case of `O=C(CCCOc1cccc(Br)c1)NC1CCSC1=O` (stereo not drawn), the pIC50 in data set [3] was 5.10.
`O=C1C(Cl)=C(Cl)CN1CCc1ccc(O)cc1`: the values for the inhibition in data set [4] and in [5] were 74% and 32.1%, respectively.
As for `O=C(CCCOc1cccc(Cl)c1)NC1CCSC1=O` (stereo not drawn), the pIC50 in data set [3] was 5.05.
Consider `Clc1ccc2c(NCCCCCCCCNCc3cc4ccccc4o3)ccnc2c1`, for which the pIC50 in data set [6] was 4.92; in [8], 4.30; in data set [9], 4.60; in [10], 4.40. In addition, the Activity in data set [7] and in data set [11] was 40% throughout.
As for `CCCCCCCCCC(=O)NC1CCCC1` [N-CYCLOPENTYLDECANAMIDE], the negative logarithm of the IC50 (pIC50) is 4.05 in [12] and 4.10 in data set [13].
As to `O=C1C(=O)N(C(=O)CCl)c2ccc([N+](=O)[O-])cc21`, the inhibition in data set [14] amounted to 60.8%; in data set [15] it was 57.3%; in [16], 48.5%; in [17], 65.8%.
Turning to `CCCCCCCCCC(=O)CC(=O)Nc1ccccc1O`, the inhibition in data set [18] worked out at 60%; in data set [19], 90%; in data set [20], 80%.
As to `CCCCCCCCCCCCn1nnc(CC(=O)O)n1`, the inhibition in data set [1] was 50%. Further, in [2], the pIC50 is 4.52.
In the case of `O=C(CCCNc1ccc(F)cc1)NC1CCOC1=O` (stereo not drawn), the Activity in [21] worked out at 49.2%.
In the case of `NCCCCCCCCCCCCNc1ccnc2cc(Cl)ccc12`, the pIC50 in data set [6] was 5.60; in data set [22], 4.16; in [8], 4.16.
Take `Clc1ccc2c(NCCCCCCCCNCc3cc4ccccc4s3)ccnc2c1`: the pIC50 in [6] is 4.60; in data set [9], 4.52. The Activity in [7] and in [11] was 40% in each case.
As for `NCCCCCCCCCCCCNc1ccnc2cc(C(F)(F)F)ccc12`, the pIC50 in data set [22] and in data set [8] was 4.20 throughout.
`O=C(CCCNc1ccc(Cl)cc1)NC1CCOC1=O` (stereo not drawn): the Activity in data set [21] is given as 57.4%.
For the compound `O=C(CSC(=S)N[C@H]1CCOC1=O)NC(=O)Nc1cccc2ccccc12`, the inhibition in data set [23] worked out at 33%; in [24], 20.8%; in [25], 55.5%; in data set [26], 14.3%; in data set [27] it was 38.9%; in data set [28], 71%. Also, the inhibition was 47.9% in data set [29] and 67.7% in [30]. Further, the “inhibition (INH)” value in data set [31] is listed as 35.3%.
